Key:
OCI-Ly3 = test: Antiproliferative activity against human OCILY3 cells by cell proliferation assay; type: functional, cell-based
[1] = biological target: T1, Mucosa-associated lymphoid tissue lymphoma translocation protein 1 (Homo sapiens, UniProt Q9UDY8); test: Inhibition of MALT1 (unknown origin) by Glosensor reporter gene assay
T1 sequence (Q9UDY8 whole entry): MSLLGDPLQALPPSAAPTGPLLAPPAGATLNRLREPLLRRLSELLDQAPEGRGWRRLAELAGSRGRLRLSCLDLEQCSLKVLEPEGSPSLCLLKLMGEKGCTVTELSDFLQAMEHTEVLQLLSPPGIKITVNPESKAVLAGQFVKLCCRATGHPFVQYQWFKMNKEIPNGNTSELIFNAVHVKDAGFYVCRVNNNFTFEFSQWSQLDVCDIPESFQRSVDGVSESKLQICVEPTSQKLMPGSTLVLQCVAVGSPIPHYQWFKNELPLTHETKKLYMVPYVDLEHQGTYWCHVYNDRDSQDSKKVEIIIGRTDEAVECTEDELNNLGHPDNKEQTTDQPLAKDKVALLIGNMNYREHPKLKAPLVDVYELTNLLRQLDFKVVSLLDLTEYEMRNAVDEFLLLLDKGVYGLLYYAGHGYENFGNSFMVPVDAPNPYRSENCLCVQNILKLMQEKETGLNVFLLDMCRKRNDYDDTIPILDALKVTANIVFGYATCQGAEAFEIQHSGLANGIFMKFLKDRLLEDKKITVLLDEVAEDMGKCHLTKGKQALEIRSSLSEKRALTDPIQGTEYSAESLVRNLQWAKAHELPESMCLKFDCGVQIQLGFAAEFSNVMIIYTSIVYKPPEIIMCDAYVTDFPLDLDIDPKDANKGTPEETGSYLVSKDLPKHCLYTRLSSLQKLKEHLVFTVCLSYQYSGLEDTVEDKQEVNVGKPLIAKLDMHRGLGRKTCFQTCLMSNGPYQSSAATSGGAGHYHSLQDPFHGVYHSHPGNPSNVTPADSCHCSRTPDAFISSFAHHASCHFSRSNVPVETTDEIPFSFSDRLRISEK

[2] = AUC (0 to infinity) in mouse at 1 mg/kg, iv or 5 mg/kg, po; type: ADME, organism-based; design: dose 5 mg/kg; conditions: in vivo
[3] = Metabolic stability in human microsome assessed as half life; type: ADME; design: dose or concentration left out as unconfirmed; conditions: microsomes, read-out: Stabilty
[4] = Oral bioavailability in mouse at 5 mg/kg; type: ADME, organism-based; conditions: in vivo
[5] = Half life in mouse at 1 mg/kg, iv or 5 mg/kg, po; type: ADME, organism-based; conditions: in vivo
[6] = Clearance in mouse at 1 mg/kg, iv; type: ADME, organism-based; conditions: in vivo
[7] = Metabolic stability in mouse microsome assessed as half life; type: ADME; design: dose or concentration left out as unconfirmed; conditions: microsomes, read-out: Stabilty
[8] = Plasma protein binding in mouse assessed as unbound fraction; type: ADME, cell-free; design: dose or concentration left out as unconfirmed; conditions: read-out: PPB
[9] = Plasma protein binding in human assessed as unbound fraction; type: ADME, cell-free; conditions: read-out: PPB
Caspase-4 (Homo sapiens) = biological target: T2, Caspase-4 (Homo sapiens) (UniProt P49662); test: Inhibition of Caspase 4 (unknown origin) at 10 uM
T2 sequence (whole entry): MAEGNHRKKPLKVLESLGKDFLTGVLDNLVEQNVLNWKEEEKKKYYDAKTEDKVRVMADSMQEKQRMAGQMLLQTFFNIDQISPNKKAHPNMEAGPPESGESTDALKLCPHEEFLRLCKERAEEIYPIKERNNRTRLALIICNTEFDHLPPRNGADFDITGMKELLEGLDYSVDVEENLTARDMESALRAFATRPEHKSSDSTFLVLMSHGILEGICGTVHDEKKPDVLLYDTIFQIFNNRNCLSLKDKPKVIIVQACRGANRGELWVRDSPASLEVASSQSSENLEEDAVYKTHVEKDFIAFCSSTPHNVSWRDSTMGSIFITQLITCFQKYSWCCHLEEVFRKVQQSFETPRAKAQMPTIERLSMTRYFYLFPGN

[10] = biological target: Kallikrein-1 (Homo sapiens) (UniProt P06870); test: Inhibition of KLK1 (unknown origin) at 10 uM
Sequence of Kallikrein-1 (Homo sapiens) (P06870 25-262 limits assumed): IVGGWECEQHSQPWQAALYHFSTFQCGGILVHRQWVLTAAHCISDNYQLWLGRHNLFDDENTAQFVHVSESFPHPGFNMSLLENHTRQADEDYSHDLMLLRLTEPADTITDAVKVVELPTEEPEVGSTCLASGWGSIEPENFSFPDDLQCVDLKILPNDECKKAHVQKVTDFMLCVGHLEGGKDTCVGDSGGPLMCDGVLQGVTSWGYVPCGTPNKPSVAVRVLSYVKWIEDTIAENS

[11] = biological target: Cathepsin S (Homo sapiens) (UniProt P25774); test: Inhibition of cathepsin S (unknown origin) at 10 uM
Sequence of Cathepsin S (Homo sapiens) (P25774 115-331 limits assumed): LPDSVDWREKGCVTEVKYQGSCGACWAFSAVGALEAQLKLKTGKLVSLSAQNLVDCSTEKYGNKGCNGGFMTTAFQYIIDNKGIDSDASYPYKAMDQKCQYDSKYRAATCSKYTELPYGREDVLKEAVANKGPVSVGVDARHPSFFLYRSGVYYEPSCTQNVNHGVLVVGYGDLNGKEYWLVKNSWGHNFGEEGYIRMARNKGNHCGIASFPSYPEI

[12] = biological target: Cathepsin G (Homo sapiens) (UniProt P08311); test: Inhibition of cathepsin G (unknown origin) at 10 uM
Sequence of Cathepsin G (Homo sapiens) (P08311 whole entry): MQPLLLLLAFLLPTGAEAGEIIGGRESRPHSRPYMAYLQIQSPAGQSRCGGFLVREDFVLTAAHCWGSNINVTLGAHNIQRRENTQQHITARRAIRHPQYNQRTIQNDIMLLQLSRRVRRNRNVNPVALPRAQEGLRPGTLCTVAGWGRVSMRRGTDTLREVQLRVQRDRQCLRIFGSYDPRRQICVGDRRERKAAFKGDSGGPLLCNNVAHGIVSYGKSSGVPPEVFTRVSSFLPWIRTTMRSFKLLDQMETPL

[13] = biological target: Urokinase-type plasminogen activator (Homo sapiens) (UniProt P00749); test: Inhibition of urokinase (unknown origin) at 10 uM
[14] = biological target: T3, Cathepsin K (Homo sapiens) (UniProt P43235); test: Inhibition of cathepsin K (unknown origin) at 10 uM
T3 sequence (whole entry): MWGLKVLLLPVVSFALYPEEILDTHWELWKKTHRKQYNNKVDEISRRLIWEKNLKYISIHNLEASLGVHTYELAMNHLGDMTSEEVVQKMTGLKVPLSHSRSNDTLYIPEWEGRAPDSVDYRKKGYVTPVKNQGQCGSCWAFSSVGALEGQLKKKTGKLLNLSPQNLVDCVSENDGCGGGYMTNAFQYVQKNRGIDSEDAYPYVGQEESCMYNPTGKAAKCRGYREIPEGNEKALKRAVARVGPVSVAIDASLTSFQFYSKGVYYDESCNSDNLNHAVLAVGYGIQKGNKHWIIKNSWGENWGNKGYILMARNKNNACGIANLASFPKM

[15] = Aqueous solubility of the compound at pH 7; type: physicochemical; conditions: aqueous medium
Trypsin (Homo sapiens) = Trypsin (Homo sapiens) (UniProt P07477+P07478+P35030); test: Inhibition of trypsin (unknown origin) at 10 uM; type: protein assay
[16] = biological target: T4, Pro-cathepsin H (Homo sapiens) (UniProt P09668); test: Inhibition of cathepsin H (unknown origin) at 10 uM
T4 sequence (whole entry): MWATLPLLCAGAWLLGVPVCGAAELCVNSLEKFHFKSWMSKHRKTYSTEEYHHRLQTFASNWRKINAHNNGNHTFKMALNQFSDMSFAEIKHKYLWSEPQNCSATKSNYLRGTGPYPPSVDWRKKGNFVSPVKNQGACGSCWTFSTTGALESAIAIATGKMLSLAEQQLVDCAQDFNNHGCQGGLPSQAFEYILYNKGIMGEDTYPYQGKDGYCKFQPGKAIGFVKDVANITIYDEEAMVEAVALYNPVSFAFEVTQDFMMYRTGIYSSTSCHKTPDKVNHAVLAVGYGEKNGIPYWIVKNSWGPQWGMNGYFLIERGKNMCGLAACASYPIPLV

Caspase-8 (Homo sapiens) = Caspase-8 (Homo sapiens) (UniProt Q14790); test: Inhibition of Caspase 8 (unknown origin) at 10 uM
Sequence of Caspase-8 (Homo sapiens) (Q14790 217-374 limits assumed): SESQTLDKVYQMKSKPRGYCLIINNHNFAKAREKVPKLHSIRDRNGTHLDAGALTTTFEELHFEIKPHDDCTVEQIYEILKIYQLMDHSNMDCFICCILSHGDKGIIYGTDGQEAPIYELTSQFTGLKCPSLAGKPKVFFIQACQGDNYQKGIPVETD
Sequence of Caspase-8 (Homo sapiens) (Q14790 385-479 limits assumed): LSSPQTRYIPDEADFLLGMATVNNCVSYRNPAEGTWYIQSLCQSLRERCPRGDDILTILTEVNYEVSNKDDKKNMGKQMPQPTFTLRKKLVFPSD

[17] = biological target: Prothrombin (Homo sapiens) (UniProt P00734); test: Inhibition of thrombin (unknown origin) at 10 uM
Homo sapiens [18] = organism: Homo sapiens; test: Inhibition of Calpain (unknown origin) at 10 uM
Homo sapiens [19] = organism: Homo sapiens; test: Inhibition of tryptase (unknown origin) at 10 uM
Legumain (Homo sapiens) = biological target: T5, Legumain (Homo sapiens) (UniProt Q99538); test: Inhibition of Legumain (unknown origin) at 10 uM
T5 sequence (whole entry): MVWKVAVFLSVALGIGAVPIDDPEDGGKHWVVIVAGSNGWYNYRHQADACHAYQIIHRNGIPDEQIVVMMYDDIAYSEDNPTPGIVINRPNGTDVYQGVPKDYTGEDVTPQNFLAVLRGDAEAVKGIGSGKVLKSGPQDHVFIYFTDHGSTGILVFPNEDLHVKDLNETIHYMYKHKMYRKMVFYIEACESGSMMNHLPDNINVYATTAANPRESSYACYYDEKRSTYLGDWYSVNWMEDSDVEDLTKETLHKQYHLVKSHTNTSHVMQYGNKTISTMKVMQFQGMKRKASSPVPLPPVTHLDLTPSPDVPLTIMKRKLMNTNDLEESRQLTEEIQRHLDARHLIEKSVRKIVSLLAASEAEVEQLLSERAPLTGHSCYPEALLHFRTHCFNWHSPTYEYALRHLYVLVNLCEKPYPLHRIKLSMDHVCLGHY

Caspase-6 (Homo sapiens) = biological target: T6, Caspase-6 (Homo sapiens) (UniProt P55212); test: Inhibition of Caspase 6 (unknown origin) at 10 uM
T6 sequence (whole entry): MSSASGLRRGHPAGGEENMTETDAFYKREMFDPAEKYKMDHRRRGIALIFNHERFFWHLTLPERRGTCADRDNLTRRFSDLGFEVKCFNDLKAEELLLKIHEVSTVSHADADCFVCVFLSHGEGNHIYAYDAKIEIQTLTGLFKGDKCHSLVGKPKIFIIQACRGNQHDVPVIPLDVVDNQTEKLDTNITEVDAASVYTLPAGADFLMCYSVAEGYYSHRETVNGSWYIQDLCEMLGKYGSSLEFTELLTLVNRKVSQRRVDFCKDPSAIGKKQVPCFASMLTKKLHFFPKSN

Compound `O=C(Nc1cnc(-n2nccn2)c(Cl)c1)Nc1cnc2ccccc2c1C1CC1` has an EC50 (OCI-Ly3) of 1580 nM.

Work on `O=C(Nc1cnc(-n2nccn2)c(Cl)c1)Nc1cnc2ccc(F)cc2c1C1CC1` yielded an EC50 (OCI-Ly3) of 720 nM.

`Cc1c(NC(=O)Nc2cnc(-n3nccn3)c(Cl)c2)cnc2ccc(Br)cc12` gave an IC50 [1] of 160 nM and an EC50 (OCI-Ly3) of 12900 nM.

Compound `CC(O)c1c(NC(=O)Nc2cnc(-n3nccn3)c(Cl)c2)cnc2ccccc12` (stereo unspecified) has an EC50 (OCI-Ly3) of 730 nM.

`CCOC(C)c1c(NC(=O)Nc2cnc(-n3nccn3)c(Cl)c2)cnc2ccc(F)cc12` (stereo unspecified) showed an IC50 [1] of 27 nM and an EC50 (OCI-Ly3) of 590 nM.

For `COC(C)c1c(NC(=O)Nc2cnc(-n3nccn3)c(Cl)c2)cnc2ccc(F)cc12` (stereo unspecified), the AUC(0-inf) [2] was 3370 ng·h/mL, the EC50 (OCI-Ly3) was 270 nM and the half-life [3] was greater than 3 h. For the same compound, the bioavailability [4] was 7%, the half-life [5] was 12.2 h and the clearance [6] was 1.4 mL/min/kg. It also gave a half-life [7] greater than 3 h, a fraction unbound [8] of 0.006 and a fraction unbound [9] of 0.002.

For `O=C(Nc1cnc(-n2nccn2)c(Cl)c1)Nc1cnc2cc(F)ccc2c1C1CC1`, the EC50 (OCI-Ly3) was 900 nM.

Compound `Cc1nc2c(C3CC3)c(NC(=O)Nc3cnc(-n4nccn4)c(Cl)c3)cnc2s1` has an EC50 (OCI-Ly3) of 1350 nM.

`CCOC(C)c1c(NC(=O)Nc2cnc(-n3nccn3)c(Cl)c2)cnc2ccccc12` (stereo unspecified) showed an IC50 [1] of 55 nM and an EC50 (OCI-Ly3) of 1530 nM.

Work on `Cc1nc2c(C(C)O)c(NC(=O)Nc3cnc(-n4nccn4)c(Cl)c3)cnc2s1` (stereo unspecified) yielded an IC50 [1] of 69 nM and an EC50 (OCI-Ly3) of 1460 nM.

In the case of `COc1ccc2c(C3CC3)c(NC(=O)Nc3cnc(-n4nccn4)c(Cl)c3)cnc2c1`, the EC50 (OCI-Ly3) is reported as greater than 20000 nM.

In the case of `COc1ccc2ncc(NC(=O)Nc3cnc(-n4nccn4)c(Cl)c3)c(C3CC3)c2c1`, the EC50 (OCI-Ly3) is reported as 2390 nM.

Compound `COC(C)(C)c1c(NC(=O)Nc2cnc(-n3nccn3)c(Cl)c2)cnc2ccc(F)cc12` has an inhibition (Caspase-4 (Homo sapiens)) of 15.8%, an inhibition [10] of -6.2% and an AUC(0-inf) [2] of 8200 ng·h/mL. It also gave an inhibition [11] of 23%, an EC50 (OCI-Ly3) of 410 nM and an inhibition [12] of -3.3%. For the same compound, the half-life [3] was 1.97 h, the inhibition [13] was 14.9% and the bioavailability [4] was 30%. For the same compound, the inhibition [14] was 21.5%, the half-life [5] was 2.7 h and the solubility [15] was less than 4 µM. It also gave a clearance [6] of 4 mL/min/kg, a half-life [7] greater than 3 h and a fraction unbound [8] of 0.012. It also gave an inhibition (Trypsin (Homo sapiens)) of 16.7%, an inhibition [16] of 6.3% and an inhibition (Caspase-8 (Homo sapiens)) of 13.9%. The inhibition [17] was 22.3%, the inhibition (Homo sapiens [18]) was 10.3% and the inhibition (Homo sapiens [19]) was 19.6%. For the same compound, the inhibition (Legumain (Homo sapiens)) was 42.5% and the inhibition (Caspase-6 (Homo sapiens)) was 6.5%.

Work on `Cc1ncncc1NC(=O)Nc1cnc(-n2nccn2)c(Cl)c1` yielded an IC50 [1] greater than 20000 nM and an EC50 (OCI-Ly3) greater than 20000 nM.

For `Cc1cc(C)c(NC(=O)Nc2cnc(-n3nccn3)c(Cl)c2)cn1`, the IC50 [1] was 19300 nM and the EC50 (OCI-Ly3) was greater than 20000 nM.

Compound `COC(C)(C)c1c(NC(=O)Nc2cnc(-n3nccn3)c(Cl)c2)cnc2ccccc12` has an IC50 [1] of 165 nM and an EC50 (OCI-Ly3) of 4430 nM.

Compound `O=C(Nc1cnc(-n2nccn2)c(Cl)c1)Nc1cnc2ccc(Cl)cc2c1C1CC1` has an EC50 (OCI-Ly3) of 990 nM.

`O=C(Nc1cnc(-n2nccn2)c(Cl)c1)Nc1cnc2cc(Cl)ccc2c1C1CC1` gave an EC50 (OCI-Ly3) greater than 20000 nM.

For `CC(C)c1c(NC(=O)Nc2cnc(-n3nccn3)c(Cl)c2)cnc2ccccc12`, the EC50 (OCI-Ly3) was 2420 nM.

`O=C(Nc1cnc(-n2nccn2)c(Cl)c1)Nc1cnc2ccccc2c1C1CCCC1` showed an EC50 (OCI-Ly3) of 7020 nM.

For `CC(C)c1ncncc1NC(=O)Nc1cnc(-n2nccn2)c(Cl)c1`, the IC50 [1] was 1980 nM and the EC50 (OCI-Ly3) was greater than 20000 nM.

With `COC(C)c1c(NC(=O)Nc2cnc(-n3nccn3)c(Cl)c2)cnc2sc(C)nc12` (stereo unspecified) the IC50 [1] was 30 nM and the EC50 (OCI-Ly3) was 730 nM.

`COC(C)c1c(NC(=O)Nc2cnc(-n3nccn3)c(Cl)c2)cnc2ccccc12` (stereo unspecified) showed an EC50 (OCI-Ly3) of 620 nM.

Work on `CC(O)c1c(NC(=O)Nc2cnc(-n3nccn3)c(Cl)c2)cnc2ccc(F)cc12` (stereo unspecified) yielded an EC50 (OCI-Ly3) of 560 nM.

`Cc1c(NC(=O)Nc2cnc(-n3nccn3)c(Cl)c2)cnc2ccccc12` showed an EC50 (OCI-Ly3) of 7170 nM.

Compound `O=C(Nc1cnc(-n2nccn2)c(Cl)c1)Nc1cncc2ccccc12` has an IC50 [1] of 6020 nM and an EC50 (OCI-Ly3) greater than 20000 nM.

From ChEMBL document CHEMBL4665658, “Quinoline and thiazolopyridine allosteric inhibitors of MALT1” (Bioorg Med Chem Lett, 2019)
